Assay results taken from PubChem BioAssay (NCI).
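Here, GI50 denotes the concentration required for 50% inhibition of growth. TGI: concentration producing complete growth inhibition.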

How the values were obtained:
Assay in all cases: NCI-60 cell line screen, 384-well format
786-0 renal = test system: 786-0 renal
A498 renal = test system: A498 renal
A549 NSCLC = test system: A549 NSCLC
ACHN renal = test system: ACHN renal
BT-549 breast = test system: BT-549 breast
CAKI-1 renal = test system: CAKI-1 renal
CCRF-CEM leukemia = test system: CCRF-CEM leukemia
COLO 205 colon = test system: COLO 205 colon
DU-145 prostate = test system: DU-145 prostate
EKVX NSCLC = test system: EKVX NSCLC
HCC-2998 colon = test system: HCC-2998 colon
HCT-116 colon = test system: HCT-116 colon
HCT-15 colon = test system: HCT-15 colon
HL-60(TB) leukemia = test system: HL-60(TB) leukemia
HOP-62 NSCLC = test system: HOP-62 NSCLC
HOP-92 NSCLC = test system: HOP-92 NSCLC
HS 578T breast = test system: HS 578T breast
HT29 colon = test system: HT29 colon
IGROV1 ovarian = test system: IGROV1 ovarian
K-562 leukemia = test system: K-562 leukemia
KM12 colon = test system: KM12 colon
LOX IMVI melanoma = test system: LOX IMVI melanoma
M14 melanoma = test system: M14 melanoma
MALME-3M melanoma = test system: MALME-3M melanoma
MCF7 breast = test system: MCF7 breast
MDA-MB-231 breast = test system: MDA-MB-231 breast
MDA-MB-435 melanoma = test system: MDA-MB-435 melanoma
MDA-MB-468 breast = test system: MDA-MB-468 breast
MOLT-4 leukemia = test system: MOLT-4 leukemia
NCI-H226 lung = test system: NCI-H226 lung

Work on `C[C@H]1C[C@@H](n2c(Nc3ccc(OC(F)(F)F)cc3)nc3cc(CCC(=O)O)ccc32)CC(C)(C)C1` yielded a GI50 ([…]-0 renal) of 13.8 µM, a TGI (786-0 renal) of 26.8 µM and a GI50 (A498 renal) of 13.3 µM. For the same compound, the TGI (A498 renal) was 26.2 µM, the GI50 (A549 NSCLC) was 7.54 µM and the TGI (A549 NSCLC) was 20.2 µM. For the same compound, the GI50 (ACHN renal) was 15.5 µM, the TGI (ACHN renal) was 30.8 µM and the GI50 (BT-549 breast) was 13 µM. The TGI (BT-549 breast) was 25.8 µM, the GI50 (CAKI-1 renal) was 17.2 µM and the TGI (CAKI-1 renal) was 31 µM. It also gave a GI50 (CCRF-CEM leukemia) of 11.9 µM, a TGI (CCRF-CEM leukemia) of 24.3 µM and a GI50 (COLO 205 colon) of 17.5 µM. The TGI (COLO 205 colon) was 31.5 µM, the GI50 (DU-145 prostate) was 11.8 µM and the TGI (DU-145 prostate) was 24.2 µM. For the same compound, the GI50 (EKVX NSCLC) was 14.6 µM, the TGI (EKVX NSCLC) was 27.9 µM and the GI50 (HCC-2998 colon) was 14.1 µM. It also gave a TGI (HCC-2998 colon) of 27.1 µM, a GI50 (HCT-116 colon) of 12.2 µM and a TGI (HCT-116 colon) of 24.9 µM. For the same compound, the GI50 (HCT-15 colon) was 13.9 µM, the TGI (HCT-15 colon) was 27.1 µM and the GI50 (HL-60(TB) leukemia) was 8.07 µM. It also gave a TGI (HL-60(TB) leukemia) of 17.7 µM, a GI50 (HOP-62 NSCLC) of 12.2 µM and a TGI (HOP-62 NSCLC) of 24.7 µM. The GI50 (HOP-92 NSCLC) was 16 µM, the TGI (HOP-92 NSCLC) was 29.5 µM and the GI50 (HS 578T breast) was 11 µM. For the same compound, the TGI (HS 578T breast) was 23.1 µM, the GI50 (HT29 colon) was 12.7 µM and the TGI (HT29 colon) was 25.6 µM. It also gave a GI50 (IGROV1 ovarian) of 12.7 µM, a TGI (IGROV1 ovarian) of 25.4 µM and a GI50 (K-562 leukemia) of 12.2 µM. The TGI (K-562 leukemia) was 24.9 µM, the GI50 (KM12 colon) was 13.8 µM and the TGI (KM12 colon) was 26.9 µM. The GI50 (LOX IMVI melanoma) was 16.7 µM, the TGI (LOX IMVI melanoma) was 30.5 µM and the GI50 (M14 melanoma) was 15.4 µM. For the same compound, the TGI (M14 melanoma) was 28.9 µM, the GI50 (MALME-3M melanoma) was 18.3 µM and the TGI (MALME-3M melanoma) was 32.4 µM. The TGI (MCF7 breast) was 19.2 µM, the GI50 (MDA-MB-231 breast) was 16.4 µM and the TGI (MDA-MB-231 breast) was 30 µM. The GI50 (MDA-MB-435 melanoma) was 14.9 µM, the TGI (MDA-MB-435 melanoma) was 28.3 µM and the GI50 (MDA-MB-468 breast) was 13.7 µM. The TGI (MDA-MB-468 breast) was 28.7 µM, the GI50 (MOLT-4 leukemia) was 5.49 µM and the TGI (MOLT-4 leukemia) was 17.4 µM. For the same compound, the GI50 (NCI-H226 lung) was 16.2 µM and the TGI (NCI-H226 lung) was 29.8 µM.
